Assay results reported in patent US11851426B2, “Bicyclic amines as CDK2 inhibitors” (Incyte Corporation, priority 2019, dated 2023).

target: CDK2/Cyclin E1 (Homo sapiens (Human), UniProt P24941); test: CDK2/Cyclin E1 HTRF enzyme activity assay; type: biochemical; settings: 1 mM ATP; CDK2/Cyclin E1 0.25 nM; 60 minutes at room temperature
Summary of the method: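 HTRF read-out of 4E-BP1 (Thr37/46) peptide phosphorylation (ULight peptide 50 nM) by 0.25 nM baculovirus-made GST-CDK2/FLAG-Cyclin E1, with ATP at 50 μM or 1 mM, 60 min at room temperature, pH 7.5. Eu-anti-phospho antibody with EDTA quench; IC50 fitted by three- or four-parameter dose-response.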

Row | IC50 | SMILES
1 | ≤ 20 nM | CS(=O)(=O)N1CCC(Nc2nc3cnc(-c4cn[nH]c4)c(N4CCC[C@@H](F)C4)n3n2)CC1 [Example 128, (R)-5-(3-Fluoropiperidin-1-yl)-N-(1-(methylsulfonyl)piperidin-4-yl)-6-(1H-pyrazol-4-yl)-[1,2,4]triazolo[1,5-a]pyrazin-2-amine]
2 | ≤ 20 nM | CS(=O)(=O)N1CCC(Nc2nc3c(N4CCCC(F)C4)c(-c4cn[nH]c4)ccn3n2)CC1 (centres unmarked) [Example 31, 8-(3-fluoropiperidin-1-yl)-N-(1-(methylsulfonyl)piperidin-4-yl)-7-(1H-pyrazol-4-yl)-[1,2,4]triazolo[1,5-a]pyridin-2-amine]
3 | ≤ 20 nM | CS(=O)(=O)N1CCC(Nc2nc3c(N4CCC(F)CC4)c(-c4cn[nH]c4)ccn3n2)CC1 [Example 23, 8-(4-fluoropiperidin-1-yl)-N-(1-(methylsulfonyl)piperidin-4-yl)-7-(1H-pyrazol-4-yl)-[1,2,4]triazolo[1,5-a]pyridin-2-amine]
4 | ≤ 20 nM | CCOc1c(-c2cn[nH]c2)ncc2nc(NC3CCN(S(C)(=O)=O)CC3)nn12 [Example 122, 5-Ethoxy-N-(1-(methylsulfonyl)piperidin-4-yl)-6-(1H-pyrazol-4-yl)-[1,2,4]triazolo[1,5-a]pyrazin-2-amine]
5 | ≤ 20 nM | CS(=O)(=O)N1CCC(Nc2nc3cc(-c4cn[nH]c4)ccn3n2)CC1 [Example 1, N-(1-(methylsulfonyl)piperidin-4-yl)-7-(1H-pyrazol-4-yl)-[1.2.4]triazolo[1,5-a]pyridin-2-amine]
6 | ≤ 20 nM | CC(C)Oc1c(-c2cn[nH]c2)ncn2nc(NC3CCN(S(C)(=O)=O)CC3)nc12 [Example 14, 8-isopropoxy-N-(1-(methylsulfonyl)piperidin-4-yl)-7-(1H-pyrazol-4-yl)-[1,2,4]triazolo[1,5-c]pyrimidin-2-amine]
7 | ≤ 20 nM | C[C@@H]1CN(S(C)(=O)=O)CC[C@@H]1Nc1nc2cnc(-c3cn[nH]c3)c(OCC3CC3)n2n1 [Example 115, 5-(Cyclopropylmethoxy)-N-((3R,4S)-3-methyl-1-(methylsulfonyl)piperidin-4-yl)-6-(1H-pyrazol-4-yl)-[1,2,4]triazolo[1,5-a]pyrazin-2-amine]
8 | ≤ 20 nM | CS(=O)(=O)N1CCC(Nc2nc3c(N4CCC(C(F)(F)F)CC4)c(-c4cn[nH]c4)ccn3n2)CC1 [Example 30, N-(1-(methylsulfonyl)piperidin-4-yl)-7-(1H-pyrazol-4-yl)-8-(4-(trifluoromethyl)piperidin-1-yl)-[1,2,4]triazolo[1,5-a]pyridin-2-amine]
9 | ≤ 20 nM | CS(=O)(=O)N1CCC(Nc2nc3c(OCC(F)F)c(-c4cn[nH]c4)ccn3n2)CC1 [Example 9, 8-(2,2-difluoroethoxy)-N-(1-(methylsulfonyl)piperidin-4-yl)-7-(1H-pyrazol-4-yl)-[1,2,4]triazolo[1,5-a]pyridin-2-amine]
10 | ≤ 20 nM | CCS(=O)(=O)N1CC[C@H](Nc2nc3cnc(-c4cn[nH]c4)c(OC(C)C)n3n2)[C@H](C)C1 [Example 88, N-((3R,4S)-1-(Ethylsulfonyl)-3-methylpiperidin-4-yl)-5-isopropoxy-6-(1H-pyrazol-4-yl)-[1,2,4]triazolo[1,5-a]pyrazin-2-amine]
11 | ≤ 20 nM | CCOc1c(-c2c[nH]nc2C)ccn2nc(NC3CCN(S(C)(=O)=O)CC3)nc12 [Example 17, 8-ethoxy-7-(3-methyl-1H-pyrazol-4-yl)-N-(1-(methylsulfonyl)piperidin-4-yl)-[1,2,4]triazolo[1,5-a]pyridin-2-amine]

The remaining lines, values behind:

Row | SMILES | IC50
12 | C[C@@H]1CN(S(C)(=O)=O)CC[C@@H]1Nc1nc2ccc(-c3cn[nH]c3)c(OCC3CCCC3)n2n1 [Example 77, 5-(Cyclopentylmethoxy)-N-((3R,4S)-3-methyl-1-(methylsulfonyl)piperidin-4-yl)-6-(1H-pyrazol-4-yl)-[1,2,4]triazolo[1,5-a]pyridin-2-amine] | ≤ 20 nM
13 | CS(=O)(=O)N1CCC(Nc2nc3ccc(-c4cn[nH]c4)c(OCC(F)F)n3n2)CC1 [Example 80, 5-(2,2-Difluoroethoxy)-N-(1-(methylsulfonyl)piperidin-4-yl)-6-(1H-pyrazol-4-yl)-[1,2,4]triazolo[1,5-a]pyridin-2-amine] | ≤ 20 nM
14 | CCOc1c(-c2cn[nH]c2)ccn2nc(N[C@H]3CCN(S(=O)(=O)CCCN(C)C)C[C@H]3C)nc12 [Example 28, N-((3R,4S)-1-((3-(dimethylamino)propyl)sulfonyl)-3-methylpiperidin-4-yl)-8-ethoxy-7-(1H-pyrazol-4-yl)-[1,2,4]triazolo[1,5-a]pyridin-2-amine] | ≤ 20 nM
15 | CC(C)COc1c(-c2cn[nH]c2)ncc2nc(NC3CCN(S(C)(=O)=O)CC3)nn12 [Example 104, 5-Isobutoxy-N-(1-(methylsulfonyl)piperidin-4-yl)-6-(1H-pyrazol-4-yl)-[1,2,4]triazolo[1,5-a]pyrazin-2-amine] | ≤ 20 nM
16 | C[C@@H]1CN(S(C)(=O)=O)CC[C@@H]1Nc1nc2ccc(-c3cn[nH]c3)c(OCC3CCC3)n2n1 [Example 76, 5-(Cyclobutylmethoxy)-N-((3R,4S)-3-methyl-1-(methylsulfonyl)piperidin-4-yl)-6-(1H-pyrazol-4-yl)-[1,2,4]triazolo[1,5-a]pyridin-2-amine] | ≤ 20 nM
17 | CC1CC(Oc2c(-c3cn[nH]c3)ncc3nc(N[C@H]4CCN(S(C)(=O)=O)C[C@H]4C)nn23)C1 (stereo partly drawn) [Example 107, N-((3R,4S)-3-Methyl-1-(methylsulfonyl)piperidin-4-yl)-5-(3-methylcyclobutoxy)-6-(1H-pyrazol-4-yl)-[1,2,4]triazolo[1,5-a]pyrazin-2-amine] | ≤ 20 nM
18 | CCCOc1c(-c2cn[nH]c2)ncc2nc(N[C@H]3CCN(S(C)(=O)=O)C[C@H]3C)nn12 [Example 102, N-((3R,4S)-3-Methyl-1-(methylsulfonyl)piperidin-4-yl)-5-propoxy-6-(1H-pyrazol-4-yl)-[1,2,4]triazolo[1,5-a]pyrazin-2-amine] | ≤ 20 nM
19 | C[C@@H]1CN(S(=O)(=O)c2cn(C)cn2)CC[C@@H]1Nc1nc2cnc(-c3cn[nH]c3)c(OC3CCC3)n2n1 [Example 95, 5-Cyclobutoxy-N-((3R,4S)-3-methyl-1-((1-methyl-1H-imidazol-4-yl)sulfonyl)piperidin-4-yl)-6-(1H-pyrazol-4-yl)-[1,2,4]triazolo[1,5-a]pyrazin-2-amine] | ≤ 20 nM
20 | CCOc1c(-c2cn[nH]c2)ccn2nc(N[C@H]3CCN(S(C)(=O)=O)C[C@H]3C)nc12 [Example 12, 8-ethoxy-N-((3R,4S)-3-methyl-1-(methylsulfonyl)piperidin-4-yl)-7-(1H-pyrazol-4-yl)-[1,2,4]triazolo[1,5-a]pyridin-2-amine] | ≤ 20 nM
21 | CCOc1c(-c2cn[nH]c2)ccn2nc(N[C@H]3CCN(S(=O)(=O)CCN4CC[C@@H](O)C4)C[C@H]3C)nc12 [Example 19, (R)-1-(2-(((3R,4S)-4-((8-ethoxy-7-(1H-pyrazol-4-yl)-[1,2,4]triazolo[1,5-a]pyridin-2-yl)amino)-3-methylpiperidin-1-yl)sulfonyl)ethyl)pyrrolidin-3-ol] | ≤ 20 nM
22 | C[C@@H]1CN(S(C)(=O)=O)CC[C@@H]1Nc1nc2c(OC3CCC(F)(F)CC3)c(-c3cn[nH]c3)ccn2n1 [Example 39, 8-((4,4-difluorocyclohexyl)oxy)-N-((3R,4S)-3-methyl-1-(methylsulfonyl)piperidin-4-yl)-7-(1H-pyrazol-4-yl)-[1,2,4]triazolo[1,5-a]pyridin-2-amine] | ≤ 20 nM
23 | C[C@@H]1CN(S(=O)(=O)c2cnn(C)c2)CC[C@@H]1Nc1nc2ccc(-c3cn[nH]c3)c(OC3CCOCC3)n2n1 [Example 99, N-((3R,4S)-3-Methyl-1-((1-methyl-1H-pyrazol-4-yl)sulfonyl)piperidin-4-yl)-6-(1H-pyrazol-4-yl)-5-((tetrahydro-2H-pyran-4-yl)oxy)-[1,2,4]triazolo[1,5-a]pyridin-2-amine] | ≤ 20 nM
24 | CCOc1c(-c2cn[nH]c2)ccn2nc(N[C@H]3CCN(S(=O)(=O)CCCN4CCCCC4)C[C@H]3C)nc12 [Example 27, 8-ethoxy-N-((3R,4S)-3-methyl-1-((3-(piperidin-1-yl)propyl)sulfonyl)piperidin-4-yl)-7-(1H-pyrazol-4-yl)-[1,2,4]triazolo[1,5-a]pyridin-2-amine] | ≤ 20 nM
25 | C[C@@H]1CN(S(C)(=O)=O)CC[C@@H]1Nc1nc2cnc(-c3cn[nH]c3)c(OC3CCOC(C(F)(F)F)C3)n2n1 (stereo partly drawn) [Example 113, N-((3R,4S)-3-Methyl-1-(methylsulfonyl)piperidin-4-yl)-6-(1H-pyrazol-4-yl)-5-((2-(trifluoromethyl)tetrahydro-2H-pyran-4-yl)oxy)-[1,2,4]triazolo[1,5-a]pyrazin-2-amine] | ≤ 20 nM
26 | CC(C)CCOc1c(-c2cn[nH]c2)ncc2nc(N[C@H]3CCN(S(C)(=O)=O)C[C@H]3C)nn12 [Example 116, 5-(Isopentyloxy)-N-((3R,4S)-3-methyl-1-(methylsulfonyl)piperidin-4-yl)-6-(1H-pyrazol-4-yl)-[1,2,4]triazolo[1,5-a]pyrazin-2-amine] | ≤ 20 nM
27 | CS(=O)(=O)N1CCC(Nc2nc3cnc(-c4cn[nH]c4)c(N4C5CCC4CC5)n3n2)CC1 [Example 135, 5-(7-Azabicyclo[2.2.1]heptan-7-yl)-N-(1-(methylsulfonyl)piperidin-4-yl)-6-(1H-pyrazol-4-yl)-[1,2,4]triazolo[1,5-a]pyrazin-2-amine] | ≤ 20 nM
28 | C[C@H]1CCCCN1c1c(-c2cn[nH]c2)ncc2nc(NC3CCN(S(C)(=O)=O)CC3)nn12 [Example 132, (A)-5-(2-Methylpiperidin-1-yl)-N-(1-(methylsulfonyl)piperidin-4-yl)-6-(1H-pyrazol-4-yl)-[1,2,4]triazolo[1,5-a]pyrazin-2-amine] | ≤ 20 nM
29 | CCOc1c(-c2cn[nH]c2)ccn2nc(N[C@H]3CCN(S(=O)(=O)CCCN4CCCC4)C[C@H]3C)nc12 [Example 29, 8-ethoxy-N-((3R,4S)-3-methyl-1-((3-(pyrrolidin-1-yl)propyl)sulfonyl)piperidin-4-yl)-7-(1H-pyrazol-4-yl)-[1,2,4]triazolo[1,5-a]pyridin-2-amine] | ≤ 20 nM
